Assay results from US12275733B2, “Substituted pyrido[3,4-b]indoles for the treatment of cartilage disorders” (Sanofi, priority 2016, dated 2025).

Tested on: ATDC5 cells
Test: Chondrogenesis activity assay in ATDC5 cells (collagen type II induction, immunofluorescence)
Assay type: cell-based, mouse
Details: Mus musculus; for EC50: collagen type II induction in ATDC5 cells, concentration reaching 50% of maximum induction; for Emax: maximum percent induction of collagen type II relative to internal reference compound at 10 μM, ATDC5 cells
Outline: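 Mouse ATDC5 cells in insulin (10 μg/ml)-containing DMEM/F12 differentiation medium with 5% FCS were exposed to compound, typically 40 nM–10 μM at 0.1% DMSO, for 4 days at 37 °C. Intracellular collagen type II was quantified by Alexa Fluor 488 immunostaining with high-content imaging, relative to DMSO and a 10 μM reference compound.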

| EC50 [nM] | Structure (SMILES) | Emax [%] |
| --- | --- | --- |
| > 10000 | CCn1c2c(-c3cccc(N4CCOCC4)c3)cc(Cl)cc2c2ccnc(C)c21 [Example 253, 6-Chloro-9-ethyl-1-methyl-8-(3-morpholin-4-yl-phenyl)-9H-pyrido[3,4-b]indole] | 20 to 50 |
| > 3300 | CCn1c2c(-c3cccc(CN4CCOCC4)c3)cc(Cl)cc2c2ccnc(C)c21 [Example 254, 6-Chloro-9-ethyl-1-methyl-8-(3-morpholin-4-ylmethyl-phenyl)-9H-pyrido[3,4-b]indole] | < 20 |
| > 3300 | Cc1nccc2c1[nH]c1c(-c3cccc(CN4CCOCC4)c3)cc(Cl)cc12 [Example 255, 6-Chloro-1-methyl-8-(3-morpholin-4-ylmethyl-phenyl)-9H-pyrido[3,4-b]indole] | < 20 |
| 310 | CCn1c2c(-c3ccc(OCC4(C)COC4)cc3)cc(Br)cc2c2ccnc(C)c21 [Example 257, 6-Bromo-9-ethyl-1-methyl-8-[4-(3-methyl-oxetan-3-ylmethoxy)-phenyl]-9H-pyrido[3,4-b]indole] | > 80 |
| 430 | Cc1nccc2c1[nH]c1c(-c3ccc(OCCn4cccn4)cc3)cc(Br)cc12 [Example 259, 6-Bromo-1-methyl-8-[4-(2-pyrazol-1-yl-ethoxy)-phenyl]-9H-pyrido[3,4-b]indole] | > 80 |
| > 1100 | Cc1nccc2c1[nH]c1c(-c3cccc(OCc4ccc5ccccc5n4)c3)cc(Cl)cc12 [Example 260, 6-Chloro-1-methyl-8-[3-(quinolin-2-ylmethoxy)-phenyl]-9H-pyrido[3,4-b]indole] | < 20 |
| 1500 | CCn1c2c(-c3cnn(Cc4ccccn4)c3)cc(Br)cc2c2ccnc(C)c21 [Example 261, 6-Bromo-9-ethyl-1-methyl-8-(1-pyridin-2-ylmethyl-1H-pyrazol-4-yl)-9H-pyrido[3,4-b]indole] | > 80 |
| 2300 | Cc1nccc2c1[nH]c1c(-c3ccc(OC(F)(F)F)cc3)cc(Cl)cc12 [Example 262] | > 80 |
| 550 | CCn1c2c(-c3cnn(CCOC(C)=O)c3)cc(Cl)cc2c2ccnc(C)c21 [Example 263, Acetic acid 2-[4-(6-chloro-9-ethyl-1-methyl-9H-pyrido[3,4-b]indol-8-yl)-pyrazol-1-yl]-ethyl ester] | > 80 |
| 110 | Cc1nccc2c1[nH]c1c(-c3ccc(OCc4ncccn4)cc3)cc(Cl)cc12 [Example 266, 6-Chloro-1-methyl-8-[4-(pyrimidin-2-ylmethoxy)-phenyl]-9H-pyrido[3,4-b]indole] | > 80 |
| > 3300 | Cc1nccc2c1[nH]c1c(-c3cccc(OCc4ncccn4)c3)cc(Cl)cc12 [Example 267, 6-Chloro-1-methyl-8-[3-(pyrimidin-2-ylmethoxy)-phenyl]-9H-pyrido[3,4-b]indole] | 50 to 80 |
| 340 | Cc1nccc2c1[nH]c1c(-c3ccc(Oc4ncc(Br)cn4)cc3)cc(Cl)cc12 [Example 268, 8-[4-(5-Bromo-pyrimidin-2-yloxy)-phenyl]-6-chloro-1-methyl-9H-pyrido[3,4-b]indole] | > 80 |
| > 3300 | Cc1nccc2c1[nH]c1c(-c3cccc(OCc4nccc5ccccc45)c3)cc(Cl)cc12 [Example 269, 6-Chloro-8-[3-(isoquinolin-1-ylmethoxy)-phenyl]-1-methyl-9H-pyrido[3,4-b]indole] | 20 to 50 |
| 1900 | COc1cc(OC)nc(COc2cccc(-c3cc(Cl)cc4c3[nH]c3c(C)nccc34)c2)n1 [Example 272, 6-Chloro-8-[3-(4,6-dimethoxy-pyrimidin-2-ylmethoxy)-phenyl]-1-methyl-9H-pyrido[3,4-b]indole] | > 80 |
| 170 | Cc1nccc2c1[nH]c1c(-c3cccc(OCc4nccs4)c3)cc(Cl)cc12 [Example 273, 6-Chloro-1-methyl-8-[3-(thiazol-2-ylmethoxy)-phenyl]-9H-pyrido[3,4-b]indole] | < 20 |
| > 3300 | Cc1nccc2c1[nH]c1c(-c3cccc(OCc4ncc5ccccc5n4)c3)cc(Cl)cc12 [Example 274, 6-Chloro-1-methyl-8-[3-(quinazolin-2-ylmethoxy)-phenyl]-9H-pyrido[3,4-b]indole] | < 20 |
| 300 | COc1cc(OC)nc(COc2ccc(-c3cc(Cl)cc4c3[nH]c3c(C)nccc34)cc2)n1 [Example 275, 6-Chloro-8-[4-(4,6-dimethoxy-pyrimidin-2-ylmethoxy)-phenyl]-1-methyl-9H-pyrido[3,4-b]indole] | > 80 |
| 420 | CCn1c2c(-c3cnn(CC4OCCO4)c3)cc(Cl)cc2c2ccnc(C)c21 [Example 276, 6-Chloro-8-(1-[1,3]dioxolan-2-ylmethyl-1H-pyrazol-4-yl)-9-ethyl-1-methyl-9H-pyrido[3,4-b]indole] | > 80 |

| EC50 [nM] | Structure (SMILES) | Emax [%] |
| --- | --- | --- |
| > 3300 | Cc1nccc2c1[nH]c1c(-c3cccc(OCc4ccc(C(F)(F)F)o4)c3)cc(Cl)cc12 [Example 277, 6-Chloro-1-methyl-8-[3-(5-trifluoromethyl-furan-2-ylmethoxy)-phenyl]-9H-pyrido[3,4-b]indole] | < 20 |
| > 3300 | Cc1nccc2c1[nH]c1c(-c3ccc(OCC4COc5ccccc5O4)cc3)cc(Cl)cc12 (stereo not shown) [Example 278, 6-Chloro-8-[4-(2,3-dihydro-benzo[1,4]dioxin-2-ylmethoxy)-phenyl]-1-methyl-9H-pyrido[3,4-b]indole] | 20 to 50 |
| 1800 | Clc1cc(-c2ccc(Cl)nc2)c2c(c1)c1ccncc1n2CC1CCC1 [Example 279, 6-Chloro-8-(6-chloro-pyridin-3-yl)-9-cyclobutylmethyl-9H-pyrido[3,4-b]indole] | 20 to 50 |
| > 10000 | Clc1cc(-c2cccnc2)c2c(c1)c1ccncc1n2CC1CC1 [Example 280, 6-Chloro-9-cyclopropylmethyl-8-pyridin-3-yl-9H-pyrido[3,4-b]indole] | < 20 |
| 110 | Cc1nccc2c3cc(Cl)cc(-c4cncnc4)c3n(CC3CC3)c12 [Example 281, 6-Chloro-9-cyclopropylmethyl-1-methyl-8-pyrimidin-5-yl-9H-pyrido[3,4-b]indole] | < 20 |
| 3600 | Cc1nccc2c3cc(Cl)cc(-c4ccc(Cl)cc4Cl)c3n(CC3CC3)c12 [Example 282, 6-Chloro-9-cyclopropylmethyl-8-(2,4-dichloro-phenyl)-1-methyl-9H-pyrido[3,4-b]indole] | < 20 |
| 410 | Cc1nccc2c3cc(Cl)cc(-c4cnccc4Cl)c3n(CC3CC3)c12 [Example 283, 6-Chloro-8-(4-chloro-pyridin-3-yl)-9-cyclopropylmethyl-1-methyl-9H-pyrido[3,4-b]indole] | < 20 |
| 4200 | Cc1nccc2c3cc(Cl)cc(-c4cccnc4Cl)c3n(CC3CC3)c12 [Example 284, 6-Chloro-8-(2-chloro-pyridin-3-yl)-9-cyclopropylmethyl-1-methyl-9H-pyrido[3,4-b]indole] | < 20 |
| 6100 | Cc1nccc2c3cc(Cl)cc(-c4ccc(Cl)nc4Cl)c3n(CC3CC3)c12 [Example 285, 6-Chloro-9-cyclopropylmethyl-8-(2,6-dichloro-pyridin-3-yl)-1-methyl-9H-pyrido[3,4-b]indole] | 20 to 50 |
| 41 | Cc1nccc2c3cc(Cl)cc(-c4cnc(N(C)C)nc4)c3n(CC3CC3)c12 [Example 286, [5-(6-Chloro-9-cyclopropylmethyl-1-methyl-9H-pyrido[3,4-b]indol-8-yl)-pyrimidin-2-yl]-dimethyl-amine] | < 20 |
| 230 | Cn1cc(-c2cc(Cl)cc3c4ccncc4n(CC4CC4)c23)cn1 [Example 287, 6-Chloro-9-cyclopropylmethyl-8-(1-methyl-1H-pyrazol-4-yl)-9H-pyrido[3,4-b]indole] | 50 to 80 |
| 750 | COc1ccc(-c2cc(Cl)cc3c4ccncc4n(C4CC4)c23)cc1 [Example 289, 6-Chloro-9-cyclopropyl-8-(4-methoxy-phenyl)-9H-pyrido[3,4-b]indole] | > 80 |
| > 10000 | Cc1nccc2c3cc(Cl)cc(-c4cnn(Cc5cccnc5)c4)c3n(CC3CC3)c12 [Example 290, 6-Chloro-9-cyclopropylmethyl-1-methyl-8-(1-pyridin-3-ylmethyl-1H-pyrazol-4-yl)-9H-pyrido[3,4-b]indole] | 20 to 50 |
| 1700 | Clc1ccc(-c2cc(Cl)cc3c4ccncc4n(CC4CC4)c23)cc1 [Example 291, 6-Chloro-8-(4-chloro-phenyl)-9-cyclopropylmethyl-9H-pyrido[3,4-b]indole] | 50 to 80 |
| > 6600 | Cc1nccc2c3cc(Cl)cc(-c4ccccc4C(N)=O)c3n(CC3CC3)c12 [Example 292, 2-(6-Chloro-9-cyclopropylmethyl-1-methyl-9H-pyrido[3,4-b]indol-8-yl)-benzamide] | < 20 |
| 4500 | COc1ccc(-c2cc(Cl)cc3c4ccnc(C)c4n(CC4CC4)c23)cc1 [Example 293, 6-Chloro-9-cyclopropylmethyl-8-(4-methoxy-phenyl)-1-methyl-9H-pyrido[3,4-b]indole] | 50 to 80 |
| 1200 | CN(C)c1ccc(-c2cc(Cl)cc3c4ccncc4n(CC4CC4)c23)c(Cl)n1 [Example 294, [6-Chloro-5-(6-chloro-9-cyclopropylmethyl-9H-pyrido[3,4-b]indol-8-yl)-pyridin-2-yl]-dimethyl-amine] | > 80 |
